Measured values published in patent US20250276089A1, “CO-DELIVERY OF INHIBITORY NUCLEIC ACIDS AND GENOME EDITORS FOR TUMOR THERAPY” (The Board of Regents of The University of Texas System, priority 2022, published 2025).

System: tumor cells
Assay: mRNA delivery efficacy in tumor cells treated with an FAK inhibitor plus siCtrl+mRNA-LNPs
Type: cell-based
Conditions: co-administered with siCtrl+mRNA-LNPs

CS(=O)(=O)c1cccc(CNc2nc(Nc3ccc4c(c3)CCC(=O)N4)ncc2C(F)(F)F)c1 [FAK inhibitor, PF-573228]
mRNA delivery efficacy and protein expression: enhanced
